# Experiments:
# [1] = Binary supramolecular self-assembly systems of polymer and target: guest concentration over incubation time (Comparative Example 2); type: physicochemical
# Description: Experiments were conducted according to the steps in Comparative Example 1, and quantitative analysis was carried out using the analytical method for each target to investigate the regulation ability […] stacking.
# [2] = 10% (W/V) Rubusoside A as building block; according to US2012/0121696A1; cited from earlier work
# [3] = Guest molecule concentration after incubation in initial medium without polymer (Comparative Example 1); type: physicochemical; conditions: 37° C.
# Summary of the method: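 Dissolved guest content measured by HPLC of centrifuged supernatants (37° C., 13000 rpm, 5 min) sampled at 0.5 h, 3 h and 6 h. Incubation was polymer-free at 37° C.±0.5° C. in buffers of pH 2.0-7.4; nominal loading was set by maximum clinical dose.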
# [4] = Comparative Example 3: systems with 10% (W/V) natural building block; type: physicochemical; conditions: 6 h
# Description: An initial medium of each above target molecule was used to prepare a solution containing 10% Rubusoside A (313) or 10% (W/V) Mogroside V (319), the solution was sonicated at 37° C. to prepare a solution containing about 100 mg/mL building block 313 or 319 per 1 mL of the initial medium, the clear medium containing the natural building blocks was incubated in a 37° C. constant temperature air bath shaker for 1 hour, and subsequent operations and sample detection followed the steps of Comparative Examples 1 and 2. Considering that each natural building block had different UV absorption and was added at a high concentration, the more specific HPLC method was still used for quantitative determination on the solution concentration of each guest molecule, […].
# [5] = Binary (carrier), ternary and quaternary supramolecular self-assembly systems of polymer, carrier building block and target: guest concentration over incubation time (Examples 1-56); type: physicochemical
# Summary of the method: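 Targets were incubated at 37 °C in pH 2.0–7.4 buffers with 0.5% polymer alone or with carrier building blocks, after 0.5 h sonication for ternary systems, and shaken at 200 rpm. Samples at 0.5–6 h were centrifuged and diluted ≥10-fold, and dissolved target was quantified by HPLC; surfactant was added if needed.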
# [6] = cited from earlier work; for Log P: prost derivatives, Table 31 (relevant information)
# [7] = prost derivatives; 37° C.; cited from earlier work
# [8] = binary system with 0.5% polymer 101, incubation 0.5 h
# [9] = binary system with 0.5% polymer 101, incubation 3 h
# [10] = binary system with 0.5% polymer 101, incubation 6 h
# [11] = binary system with 0.5% polymer 102, incubation 0.5 h
# [12] = binary system with 0.5% polymer 102, incubation 3 h
# [13] = binary system with 0.5% polymer 102, incubation 6 h
# [14] = binary system with 0.5% polymer 103, incubation 0.5 h
# [15] = binary system with 0.5% polymer 103, incubation 3 h
# [16] = binary system with 0.5% polymer 103, incubation 6 h
# [17] = binary system with 0.5% polymer 106, incubation 0.5 h
# [18] = binary system with 0.5% polymer 106, incubation 3 h
# [19] = binary system with 0.5% polymer 106, incubation 6 h
# [20] = binary system with 0.5% polymer 107, incubation 0.5 h
# [21] = binary system with 0.5% polymer 107, incubation 3 h
# [22] = binary system with 0.5% polymer 107, incubation 6 h
# [23] = binary system with 0.5% polymer 110, incubation 0.5 h
# [24] = binary system with 0.5% polymer 110, incubation 3 h
# [25] = binary system with 0.5% polymer 110, incubation 6 h
# [26] = ternary: 0.25% 102L + 0.1% 313, 6 h
# [27] = ternary: 0.25% 102L + 1.0% 313, 6 h
# [28] = ternary: 0.25% 102H + 0.1% 319, 6 h
# [29] = ternary: 0.25% 102H + 1.0% 319, 6 h
# [30] = ternary: 0.25% 102M + 0.5% 302, 6 h
structure (smiles),measurement,setting,value
Cc1ccc(-c2cc(C(F)(F)F)nn2-c2ccc(S(N)(=O)=O)cc2)cc1 [Celecoxib],Concentration of the target in the solution measured after different incubation time,[1]; [8],224.3 µg/mL
same,Concentration of the target in the solution measured after different incubation time,[1]; [9],62.2 µg/mL
same,Concentration of the target in the solution measured after different incubation time,[1]; [10],54.4 µg/mL
same,Concentration of the target in the solution measured after different incubation time,[1]; [11],19.6 µg/mL
same,Concentration of the target in the solution measured after different incubation time,[1]; [12],11.1 µg/mL
same,Concentration of the target in the solution measured after different incubation time,[1]; [13],10.6 µg/mL
same,Concentration of the target in the solution measured after different incubation time,[1]; [14],31.1 µg/mL
same,Concentration of the target in the solution measured after different incubation time,[1]; [15],32.2 µg/mL
same,Concentration of the target in the solution measured after different incubation time,[1]; [16],31.9 µg/mL
same,Concentration of the target in the solution measured after different incubation time,[1]; [17],49.0 µg/mL
same,Concentration of the target in the solution measured after different incubation time,[1]; [18],30.1 µg/mL
same,Concentration of the target in the solution measured after different incubation time,[1]; [19],26.3 µg/mL
same,Concentration of the target in the solution measured after different incubation time,[1]; [20],36.4 µg/mL
same,Concentration of the target in the solution measured after different incubation time,[1]; [21],35.4 µg/mL
same,Concentration of the target in the solution measured after different incubation time,[1]; [22],35.3 µg/mL
same,Concentration of the target in the solution measured after different incubation time,[1]; [23],6.4 µg/mL
same,Concentration of the target in the solution measured after different incubation time,[1]; [24],11.1 µg/mL
same,Concentration of the target in the solution measured after different incubation time,[1]; [25],4.8 µg/mL
same,Concentration in the solution,[2],109 µg/mL
same,Concentration of guest molecule measured after different incubated time,"[3]; 0.5 h, pH 2.0 hydrochloric acid",20.5 µg/mL
same,Concentration of guest molecule measured after different incubated time,"[3]; 3 h, pH 2.0 hydrochloric acid",5.4 µg/mL
same,Concentration of guest molecule measured after different incubated time,"[3]; 6 h, pH 2.0 hydrochloric acid",4.2 µg/mL
same,Concentration of guest molecule in solution,[4]; Comparative Example 3: 10% 313,31.3 µg/mL
same,Concentration of guest molecule in solution,[5]; [26],988.1 µg/mL
same,Times that in Comparative Example 3,[5]; [26],31.9 times
same,Concentration of guest molecule in solution,[5]; [27],352.3 µg/mL
same,Times that in Comparative Example 3,[5]; [27],11.4 times
"CC(C)OC(=O)CCC/C=C\C[C@@H]1[C@@H](CC[C@@H](O)CCc2ccccc2)[C@H](O)C[C@@H]1O [Latanoprost, latanoprost]",Log P,[6],3.98
same,Intrinsic solubility,[7],30 µg/mL
"CCNC(=O)CCC/C=C\C[C@@H]1[C@@H](/C=C/[C@@H](O)CCc2ccccc2)[C@H](O)C[C@@H]1O [Bimatoprost, bimatoprost]",Log P,[6],2.65
same,Intrinsic solubility,[7],50 µg/mL
COc1cc(/C=C/C(=O)CC(=O)/C=C/c2ccc(O)c(OC)c2)ccc1O [Curcumin],Concentration of the target in the solution measured after different incubation time,[1]; [8],219.7 µg/mL
same,Concentration of the target in the solution measured after different incubation time,[1]; [9],120.1 µg/mL
same,Concentration of the target in the solution measured after different incubation time,[1]; [10],50.3 µg/mL
same,Concentration of the target in the solution measured after different incubation time,[1]; [11],747.8 µg/mL
same,Concentration of the target in the solution measured after different incubation time,[1]; [12],643.4 µg/mL
same,Concentration of the target in the solution measured after different incubation time,[1]; [13],576.7 µg/mL
same,Concentration of the target in the solution measured after different incubation time,[1]; [14],76.1 µg/mL
same,Concentration of the target in the solution measured after different incubation time,[1]; [15],52.9 µg/mL
same,Concentration of the target in the solution measured after different incubation time,[1]; [16],32.7 µg/mL
same,Concentration of the target in the solution measured after different incubation time,[1]; [17],102.6 µg/mL
same,Concentration of the target in the solution measured after different incubation time,[1]; [18],118.1 µg/mL
same,Concentration of the target in the solution measured after different incubation time,[1]; [19],90.3 µg/mL
same,Concentration of the target in the solution measured after different incubation time,[1]; [20],107.4 µg/mL
same,Concentration of the target in the solution measured after different incubation time,[1]; [21],8.3 µg/mL
same,Concentration of the target in the solution measured after different incubation time,[1]; [22],7.7 µg/mL
same,Concentration of the target in the solution measured after different incubation time,[1]; [23],6.0 µg/mL
same,Concentration of the target in the solution measured after different incubation time,[1]; [24],8.3 µg/mL
same,Concentration of the target in the solution measured after different incubation time,[1]; [25],10.0 µg/mL
same,Concentration of guest molecule in solution,"[1]; binary: 0.25% 102M, 2 h",962.6 µg/mL
same,Concentration of guest molecule in solution,"[1]; binary: 0.25% 102M, 6 h",6.4 µg/mL
same,Concentration of guest molecule in solution,"[1]; binary: 0.5% 102M, 6 h",576.6 µg/mL
same,Times that of the initial medium,"[1]; binary: 0.5% 102M, 6 h",67 times
same,Concentration of guest molecule measured after different incubated time,"[3]; 0.5 h, pH 6.8 phosphate buffer",1.7 µg/mL
same,Concentration of guest molecule measured after different incubated time,"[3]; 3 h, pH 6.8 phosphate buffer",9.4 µg/mL
same,Concentration of guest molecule measured after different incubated time,"[3]; 6 h, pH 6.8 phosphate buffer",8.6 µg/mL
same,LogP,[6],4.12
same,Concentration of guest molecule in solution,[4]; Comparative Example 3: 10% 319,8.3 µg/mL
same,Concentration of guest molecule in solution,"[5]; quaternary: 0.25% 204 (102M+103E5) + 302, 6 h",34.2 µg/mL
same,Concentration of guest molecule in solution,[5]; [28],676.6 µg/mL
same,Times that in Comparative Example 3,[5]; [28],81.5 times
same,Concentration of guest molecule in solution,[5]; [29],516.3 µg/mL
same,Times that in Comparative Example 3,[5]; [29],62.2 times
same,Concentration of guest molecule in solution,"[5]; ternary: 0.25% 102M + 0.05% 314, 0.5 h",140.0 µg/mL
same,Concentration of guest molecule in solution,"[5]; ternary: 0.25% 102M + 0.05% 314, 6 h",5.2 µg/mL
same,Concentration of guest molecule in solution,"[5]; ternary: 0.25% 102M + 0.1% 314, 4 h",1036.7 µg/mL
same,Concentration of guest molecule in solution,[5]; [30],862.1 µg/mL
same,Times that of the initial medium,[5]; [30],100.6 times
same,Concentration of guest molecule in solution,"[5]; ternary: 0.25% 102M + 1.0% or 1.5% 314, 0.5 h-4.0 h",~1000 µg/mL
same,Concentration of guest molecule in solution,"[5]; ternary: 0.25% 102M + 1.0% or 1.5% 314, 6 h",900 µg/mL
same,Concentration of guest molecule in solution,"[5]; ternary: 102H + 313, 4 h",about 609.8 μg/mL
same,Concentration of guest molecule in solution,"[5]; ternary: 102H + 317, 4 h",~638.6 µg/mL
